Results from patent publication US20050153899A1, “Therapeutical conversion” (priority 2003, published 2005).

How the values were obtained:
serum IGF-I = experiment: Serum IGF-I concentration (RIA) in open-label octreotide LAR to pegvisomant conversion study; type: in vivo, human
Description: This open-label study included patients 18 years of age or older with a previously established diagnosis of acromegaly. […] Treatment with a dopamine agonist was discontinued 4 weeks before the baseline visit. Treatment with pegvisomant 10 mg/day subcutaneous was started at week 4 and continued through week 32. […] A more rapid dose escalation was allowed in a few patients based on the effective dose in the previous study. Vital signs and adverse events were monitored at each study visit; clinical and laboratory assessments were conducted at screening and baseline visits and regularly at 4-week intervals during the study. Laboratory assessments included serum IGF-I and GH concentrations, liver chemistry tests (alanine aminotransferase [ALT], aspartate transaminase [AST], bilirubin, and alkaline phosphatase), and routine laboratory tests (hematology, serum chemistry, and urinalysis). Assaying of serum IGF-I and GH concentrations was performed by an independent laboratory (Endocrine Sciences, Inc., Calabasas Hills, Calif.). Following separation of serum IGF-I from binding proteins by acid-ethanol extraction, serum IGF-I concentrations were determined using the IGF-I Nichols Kit (Cat. […] Serum GH concentrations were measured using a standard double antibody RIA with 125I-labeled recombinant human GH (hGH) tracer and primary rabbit anti-hGH antisera. Bound radioactive antibody-bound hGH was detected using a gamma counter. Specific radioactive hGH binding for each dilution was determined by subtracting the respective nonspecific binding, and the net radioactive hGH binding was calculated as a percentage of the total radioactive hGH added to each tube. Dilutions having a specific binding >2% were designated positive. For the primary outcome measure, exact binomial 2-sided 95% confidence intervals were constructed. All other analyses were descriptive in nature. For continuous measurements, descriptive summaries and subsequent analyses included the number of patients for which data were available, mean, median, standard deviation, and minimum/maximum values. […] The descriptive summaries for categorical or discrete measurements included the number and percentage of patients in each category. […] Secondary outcomes and safety were reported as descriptive summaries.

patients with acromegaly [1] = experiment: Safety monitoring in conversion study: adverse events, liver function tests, blood pressure, pulse, weight; type: in vivo, human
Description: This open-label study included patients 18 years of age or older with a previously established diagnosis of acromegaly. […] Treatment with a dopamine agonist was discontinued 4 weeks before the baseline visit. Treatment with pegvisomant 10 mg/day subcutaneous was started at week 4 and continued through week 32. […] A more rapid dose escalation was allowed in a few patients based on the effective dose in the previous study. Vital signs and adverse events were monitored at each study visit; clinical and laboratory assessments were conducted at screening and baseline visits and regularly at 4-week intervals during the study. Laboratory assessments included serum IGF-I and GH concentrations, liver chemistry tests (alanine aminotransferase [ALT], aspartate transaminase [AST], bilirubin, and alkaline phosphatase), and routine laboratory tests (hematology, serum chemistry, and urinalysis). For the primary outcome measure, exact binomial 2-sided 95% confidence intervals were constructed. All other analyses were descriptive in nature. For continuous measurements, descriptive summaries and subsequent analyses included the number of patients for which data were available, mean, median, standard deviation, and minimum/maximum values. […] The descriptive summaries for categorical or discrete measurements included the number and percentage of patients in each category. […] Secondary outcomes and safety were reported as descriptive summaries.

pituitary tumor = test system: pituitary tumor; set-up: species or system human; details: in vivo
Description: Magnetic resonance imaging of the pituitary was performed at baseline and at the end of the study. Pituitary tumor volumes were calculated from the images by a single evaluator. Ultrasound of the gallbladder was performed at baseline and week 32.

patients with acromegaly [2] = experiment: Glucose homeostasis in conversion study: HbA1c, fasting plasma glucose, insulin, OGTT; type: in vivo, human
Description: Glycolated hemoglobin (HbA1c), fasting plasma glucose, and insulin concentrations were used to monitor the effects of pegvisomant on glucose homeostasis. […] Patients also underwent oral glucose tolerance testing (OGTT) to determine the glucose area under the concentration-time curve (AUC) at week 4 before initiation of pegvisomant and at week 32. Plasma glucose levels were assessed at −15, 0, 30, 60, 90, 120, 150, and 180 minutes following an oral glucose load.
For the primary outcome measure, exact binomial 2-sided 95% confidence intervals were constructed. All other analyses were descriptive in nature. For continuous measurements, descriptive summaries and subsequent analyses included the number of patients for which data were available, mean, median, standard deviation, and minimum/maximum values. […] The descriptive summaries for categorical or discrete measurements included the number and percentage of patients in each category. Statistical significance defined as a P value of <0.05 was determined by: 1) McNemar's Chi-square test for liver function tests and the proportion of patients with IGF-I below upper limit of normal at during the study versus baseline, or 2) the signed rank test for all other comparisons. Secondary outcomes and safety were reported as descriptive summaries.

patients with acromegaly [3] = experiment: Signs and symptoms of acromegaly, overall health status, ring size; type: in vivo, human; details: after conversion from octreotide LAR
Description: Signs and symptoms of acromegaly and overall health status were assessed by use of questionnaire that patients completed. Disease signs and symptoms were scored using an […] (0=absent to 8=severe, incapacitating); overall health status was scored using a 10-point scale (0=worst possible to 10=best possible). Additionally, change in ring size of the fourth digit of the right hand (fifth digit if the fourth was too large) was measured using a jeweler's ring sizing system (plastic) over the course of the study.

GH or IGF-1 excess = details: primary or secondary therapy; cited from earlier work
[4] = patients with normal IGF-I at baseline (n=13)

pegvisomant
cumulative percentage of patients achieving at least one IGF-I concentration within normal age-related range (serum IGF-I; any time during the study): 85%
change in IGF-I concentrations (serum IGF-I; patients with baseline IGF-I above age-adjusted reference range): significantly reduced
change in IGF-I concentrations (serum IGF-I; patients with normal IGF-I levels at baseline): not significantly changed
serum IGF-I concentration (serum IGF-I; week 32, all patients): 292 ng/mL
patients with normalized IGF-I concentrations (serum IGF-I; week 32, 38 of 49 patients): 77.6%
clinically relevant changes in serum ALT, ASP or bilirubin in patients with normal liver function at baseline (patients with acromegaly [1]; in vivo): No patient
elevations in blood pressure or pulse (patients with acromegaly [1]; in vivo): No significant or clinically relevant elevations
mean diastolic blood pressure (patients with acromegaly [1]; in vivo): 76 mm Hg
mean systolic blood pressure (patients with acromegaly [1]; in vivo): 126 mm Hg
patients reporting at least 1 adverse event (patients with acromegaly [1]; in vivo): 26.4%
patients with abnormal liver function tests (≧3 times ULN) (patients with acromegaly [1]; in vivo): No patients had abnormal liver function tests
patients with treatment-related constipation (patients with acromegaly [1]; in vivo): 3.8%
patients with treatment-related injection-site reaction (patients with acromegaly [1]; in vivo): 3.8%
serious treatment-related adverse events (patients with acromegaly [1]; in vivo): No serious treatment-related adverse events
patients with anomalous spikes in ALT levels (patients with acromegaly [1]; week 20 to week 24): 5.7%
pituitary volume, mean change (pituitary tumor): 0.06 cm3
pituitary volume, median change (pituitary tumor): 0 cm3
pituitary volume, range of change (pituitary tumor): −0.73 to 1.1 cm3
change in median HbA1c (patients with acromegaly [2]; all patients, 32-week study): significant decrease
decrease in fasting plasma glucose (patients with acromegaly [2]; [4]): 1.7 mmol/L
decrease in median HbA1c (patients with acromegaly [2]; [4]): 0.2%
peak insulin concentration (patients with acromegaly [2]; week 12): 90 pmol/L
glucose AUC during 2-hour OGTT (patients with acromegaly [2]; week 32): 1280 mmol·min/L
insulin/glucose ratio (patients with acromegaly [2]; week 32): 13.6
median fasting glucose (patients with acromegaly [2]; week 32): 4.7 mmol/L
median insulin concentration (patients with acromegaly [2]; week 32): 69 pmol/L
mean overall signs-and-symptoms scores, overall health status, measures of ring size (patients with acromegaly [3]): improved

C[C@@H](O)[C@@H]1NC(=O)[C@H](CCCCN)NC(=O)[C@@H](Cc2c[nH]c3ccccc23)NC(=O)[C@H](Cc2ccccc2)NC(=O)[C@@H](NC(=O)[C@H](N)Cc2ccccc2)CSSC[C@@H](C(=O)N[C@H](CO)[C@@H](C)O)NC1=O [Octreotide]
patients in whom GH or IGF-1 excess is controlled (GH or IGF-1 excess): 50-60%
